Data: PubChem BioAssay AID852 (PCMD, 2007)

What follows are molecules tested against Coagulation factor XII (Homo sapiens) (UniProt P00748) (assay: human FXIIa protease inhibitors, dose response, biochemical, confirmation of 1536-well hits (AID 852)). Conditions: purified human plasma FXIIa, fluorogenic AMC substrate, 384-well, 2 h.
Coagulation factor XII (Homo sapiens), sequence (P00748 20-372 limits assumed): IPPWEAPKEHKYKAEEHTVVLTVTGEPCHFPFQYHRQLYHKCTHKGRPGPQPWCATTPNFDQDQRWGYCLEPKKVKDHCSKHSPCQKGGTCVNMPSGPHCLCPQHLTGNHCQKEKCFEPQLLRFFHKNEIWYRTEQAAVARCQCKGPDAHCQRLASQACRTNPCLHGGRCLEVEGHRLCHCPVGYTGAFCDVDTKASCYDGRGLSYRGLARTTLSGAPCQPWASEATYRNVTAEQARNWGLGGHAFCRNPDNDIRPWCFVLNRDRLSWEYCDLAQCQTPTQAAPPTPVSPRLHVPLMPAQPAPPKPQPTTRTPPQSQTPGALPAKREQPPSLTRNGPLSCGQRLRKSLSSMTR
Coagulation factor XII (Homo sapiens), sequence (P00748 373-615 limits assumed): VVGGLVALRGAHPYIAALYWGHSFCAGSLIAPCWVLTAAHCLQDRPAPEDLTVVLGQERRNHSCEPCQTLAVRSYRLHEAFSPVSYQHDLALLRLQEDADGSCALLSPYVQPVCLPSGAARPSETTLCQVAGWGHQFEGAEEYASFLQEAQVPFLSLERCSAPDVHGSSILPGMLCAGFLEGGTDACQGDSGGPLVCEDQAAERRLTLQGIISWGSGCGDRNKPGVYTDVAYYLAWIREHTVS

IC50	Compound
6.22 µM	O=C(Oc1ccc2c3c(c(=O)oc2c1)CCC3)c1ccco1
21.6 µM	O=C(Oc1ccc(Cl)c2cccnc12)c1ccco1
0.796 µM	Cc1ccc(C(=O)n2nc(-c3cccnc3)nc2N)cc1
